US9102642B2, “Herbicidally active cyclic diones and derivatives thereof, processes for their preparation, compositions, and methods of controlling weeds” (Syngenta Limited, priority 2009, dated 2015)

Tests used:
Assay in all cases: Pre-emergence herbicidal activity, glasshouse pot test
Assay type in all cases: in vivo
Details in all cases: 312 h, Rate 250 g/ha, evaluated after 13 days, 100=total damage to plant, 0=no damage to plant
Avena fatua (AVEFA) = tested on: Avena fatua (AVEFA)
Method: (§1) Seeds of a variety of test species were sown in standard soil in pots. After cultivation for one day (pre-emergence) or after 8 days cultivation (post-emergence) under controlled conditions in a glasshouse (at 24/16° C., day/night; 14 hours light; 65% humidity), the plants were sprayed with an aqueous spray solution derived from the formulation of the technical active ingredient in acetone/water (50:50) solution containing 0.5% Tween 20 (polyoxyethelyene sorbitan monolaurate, CAS RN 9005-64-5). The test plants were then grown in a glasshouse under controlled conditions in a glasshouse (at 24/16° C., day/night; 14 hours light; 65% humidity) and watered twice daily. After 13 days for pre and post-emergence, the test was evaluated (100=total damage to plant; 0=no damage to plant). Test Plants: Lolium perenne (LOLPE), Alopecurus myosuroides (ALOMY), Echinochloa crus-galli (ECHCG), and Avena fatua (AVEFA). Pre-Emergence Activity

Lolium perenne (LOLPE) = tested on: Lolium perenne (LOLPE)
Method: as §1

[1] = tested on: Echinochloa crus-galli (ECHCG)
Method: as §1

[2] = tested on: Alopecurus myosuroides (ALOMY)
Method: as §1

| SMILES | pest or weed control at 250 g/ha (Avena fatua (AVEFA)) [%] | pest or weed control at 250 g/ha (Lolium perenne (LOLPE)) [%] | pest or weed control at 250 g/ha [1] [%] | pest or weed control at 250 g/ha [2] [%] |
| --- | --- | --- | --- | --- |
| CCc1cc(Oc2ccc(Br)cc2)ccc1C1=C(O)C(C)(C)OC(C)(C)C1=O [Compound A-5] | 10 | 30 | 40 | 10 |
| CCc1cc(Oc2ncc(Cl)cc2F)ccc1C1=C(O)C(C)(C)OC(C)(C)C1=O [Compound A-8] | 30 | 100 | 100 | 40 |
| CCc1cc(Oc2ccc(Cl)cc2Cl)ccc1C1=C(O)C(C)(C)OC(C)(C)C1=O [Compound A-2] | 0 | 70 | 50 | 20 |
| CCc1cc(Oc2ccc(F)cc2)ccc1C1=C(O)C(C)(C)OC(C)(C)C1=O [Compound A-6] | 30 | 100 | 100 | 60 |
| Cc1cc(Oc2cnc3cc(Cl)ccc3n2)cc(C)c1C1=C(O)C(C)(C)OC(C)(C)C1=O [Compound A-14] | 10 | 50 | 20 | 30 |
| CCc1cc(Oc2ccc(C(F)(F)F)cn2)ccc1C1=C(O)C(C)(C)OC(C)(C)C1=O [Compound A-9, 4-[4-(5-trifluoromethylpyridin-2-yloxy)-2-ethylphenyl]-2,2,6,6-tetramethylpyran-3,5-dione] | 0 | 60 | 30 | 20 |
| CCc1cc(Oc2ccc(Cl)c(F)c2)ccc1C1=C(O)C(C)(C)OC(C)(C)C1=O [Compound A-7, 4-[4-(4-chloro-3-fluorophenoxy)-2-ethylphenyl]-2,2,6,6-tetramethylpyran-3,5-dione] | 20 | 80 | 60 | 40 |
| CCc1cc(Oc2ncc(C(F)(F)F)cc2Cl)ccc1C1=C(O)C(C)(C)OC(C)(C)C1=O [Compound A-11] | 90 | 100 | 100 | 90 |
| CCc1cc(Oc2ccc(Cl)cc2F)ccc1C1=C(O)C(C)(C)OC(C)(C)C1=O [Compound A-3] | 10 | 20 | 20 | 20 |
| CCc1cc(Oc2ccc(Cl)cc2)ccc1C1=C(O)C(C)(C)OC(C)(C)C1=O [Compound A-4] | 20 | 60 | 60 | 20 |
| CCc1cc(Oc2cnc3cc(Cl)ccc3n2)ccc1C1=C(O)C(C)(C)OC(C)(C)C1=O [Compound A-10, 4-[4-(6-chloroquinoxalin-2-yloxy)-2-ethylphenyl]-2,2,6,6-tetramethylpyran-3,5-dione] | 90 | 100 | 100 | 70 |
| Cc1cc(Oc2ncccc2Cl)cc(C)c1C1=C(O)CCCC1=O [Compound A-16] | 0 | 0 | 0 | 0 |
